Publication PMC3544079 (MedChemComm, 2011)

Tests used:
Format in all cases: biochemical
E. coli DXP synthase = E. coli DXP synthase (Escherichia coli, UniProt P77488); experiment: E. coli DXP synthase inhibition, spectrophotometric coupled assay; details: with respect to pyruvate
[1] = target: T1, S. cerevisiae transketolase (Saccharomyces cerevisiae, UniProt P23254); experiment: Inhibition of S. cerevisiae transketolase
T1 sequence (P23254 1-680): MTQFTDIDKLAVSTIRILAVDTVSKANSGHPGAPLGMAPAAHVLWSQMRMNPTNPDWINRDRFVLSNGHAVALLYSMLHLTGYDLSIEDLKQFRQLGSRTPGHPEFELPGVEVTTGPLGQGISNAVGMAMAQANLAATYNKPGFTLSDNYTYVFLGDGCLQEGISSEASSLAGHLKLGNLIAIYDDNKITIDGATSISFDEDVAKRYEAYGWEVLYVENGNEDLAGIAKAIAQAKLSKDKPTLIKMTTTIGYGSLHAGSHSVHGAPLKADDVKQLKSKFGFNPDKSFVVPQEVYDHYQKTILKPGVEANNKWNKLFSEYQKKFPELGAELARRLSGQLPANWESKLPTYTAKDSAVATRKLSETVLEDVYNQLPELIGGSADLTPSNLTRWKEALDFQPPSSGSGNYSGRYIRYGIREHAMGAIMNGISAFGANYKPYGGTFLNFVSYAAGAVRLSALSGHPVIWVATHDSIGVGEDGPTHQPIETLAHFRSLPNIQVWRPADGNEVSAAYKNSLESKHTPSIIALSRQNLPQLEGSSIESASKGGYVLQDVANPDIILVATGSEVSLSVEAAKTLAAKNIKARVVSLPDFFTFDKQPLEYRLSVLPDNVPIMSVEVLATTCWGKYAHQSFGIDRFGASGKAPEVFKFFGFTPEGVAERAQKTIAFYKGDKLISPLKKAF

[2] = target: T2, Porcine pyruvate dehydrogenase E1 subunit (Sus scrofa, UniProt P29804); experiment: Inhibition of porcine pyruvate dehydrogenase E1 subunit; details: pyruvate varied, 0-1.0 mM BAP
T2 sequence (P29804 30-390 limits assumed): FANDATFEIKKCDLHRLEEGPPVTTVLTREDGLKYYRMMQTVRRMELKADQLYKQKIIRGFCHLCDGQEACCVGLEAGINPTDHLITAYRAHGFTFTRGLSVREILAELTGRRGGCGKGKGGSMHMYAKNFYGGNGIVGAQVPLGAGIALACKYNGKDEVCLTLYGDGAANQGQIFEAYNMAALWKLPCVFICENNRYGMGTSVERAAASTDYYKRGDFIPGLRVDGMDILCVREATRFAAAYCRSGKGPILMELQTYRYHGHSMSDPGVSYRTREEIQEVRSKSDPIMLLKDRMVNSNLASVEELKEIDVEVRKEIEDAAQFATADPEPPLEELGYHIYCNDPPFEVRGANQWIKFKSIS

E. coli DXP synthase, sequence (P77488 whole entry): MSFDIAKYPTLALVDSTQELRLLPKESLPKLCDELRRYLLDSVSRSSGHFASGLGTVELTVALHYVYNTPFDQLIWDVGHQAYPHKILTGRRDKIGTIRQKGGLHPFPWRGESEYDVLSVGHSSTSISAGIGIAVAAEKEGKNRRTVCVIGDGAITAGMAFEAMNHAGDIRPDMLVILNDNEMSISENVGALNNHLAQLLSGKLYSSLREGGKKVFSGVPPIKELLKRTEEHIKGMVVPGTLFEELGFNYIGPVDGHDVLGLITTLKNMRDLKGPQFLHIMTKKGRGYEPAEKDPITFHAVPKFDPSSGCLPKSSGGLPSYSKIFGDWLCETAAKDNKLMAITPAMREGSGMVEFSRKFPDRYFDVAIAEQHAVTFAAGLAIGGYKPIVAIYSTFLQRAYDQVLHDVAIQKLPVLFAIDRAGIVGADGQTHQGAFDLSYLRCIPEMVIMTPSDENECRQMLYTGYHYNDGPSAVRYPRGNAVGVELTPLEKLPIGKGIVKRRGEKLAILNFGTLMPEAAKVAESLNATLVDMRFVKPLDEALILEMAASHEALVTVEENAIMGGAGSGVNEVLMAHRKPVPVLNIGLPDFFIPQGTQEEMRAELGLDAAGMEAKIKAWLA

SMILES	mode of inhibition (E. coli DXP synthase)	Ki [1]	mode of inhibition (E. coli DXP synthase; listed as BAP)	mode of inhibition [2]
COP(=O)([O-])C(C)=O.[Li+] [Compound 1, Methylacetylphosphonate, reference compound]	competitive inhibitor against pyruvate	> 1000 µM		
CCOP(=O)([O-])C(C)=O.[Li+] [Compound 2, Ethylacetylphosphonate]	competitive mode of inhibition	> 1000 µM		
CCCCOP(=O)([O-])C(C)=O.[Li+] [Compound 3, butylacetylphosphonate]		> 1000 µM	competitive mode of inhibition	Competitive inhibition
CCC(=O)P(=O)(O)OC [Compound 4]		> 1000 µM		
CCCC(=O)P(=O)(O)OC [Compound 5]		> 1000 µM		
CCCCC(=O)P(=O)(O)OC [Compound 6]		> 1000 µM		
